The supplement of paper PMC10883282
± gives the standard deviation of the averaged measurements.

Columns and labels:
Assay in all cases: relative viability vs DMSO control (72 h) (fraction); higher = more viable cells
[1] = test system: SW1353
Outline: (§1)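 Sarcoma cell lines in 384-well plates, seeded to reach 80–90% confluence, were given compound after 24 h and kept 72 h at 37 °C, 5% CO2, with 0.1% DMSO vehicle and a 5 µM positive control. Relative viability came from ATPLite as percent growth, averaged over up to triplicate wells. On the rescaled values, 1 equals full and 0 equals none.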

[2] = test system: RD-ES
Outline: as §1

[3] = test system: SW684
Outline: as §1

[4] = test system: KHOS-240S
Outline: as §1

[5] = test system: A204
Outline: as §1

[6] = test system: SW872
Outline: as §1

[7] = test system: KHOS-NP
Outline: as §1

[8] = test system: SW982
Outline: as §1

[9] = test system: G401
Outline: as §1

[10] = test system: SYO-1
Outline: as §1

[11] = test system: HT1080
Outline: as §1

[12] = test system: SK-ES-1
Outline: as §1

Cn1ncnc1[C@H]1c2n[nH]c(=O)c3cc(F)cc(c23)N[C@@H]1c1ccc(F)cc1 [Talazoparib]
Details	relative viability
[1], 0.00017 µM	1.06 ± 0.025
[1], 0.00051 µM	1.09 ± 0.025
[1], 0.00152 µM	1.07 ± 0.055
[1], 0.00457 µM	1.03 ± 0.055
[1], 0.01372 µM	0.999 ± 0.012
[1], 0.04115 µM	0.919 ± 0.035
[1], 0.1235 µM	0.889 ± 0.034
[1], 0.3704 µM	0.814 ± 0.046
[1], 1.111 µM	0.753 ± 0.018
[1], 3.333 µM	0.679 ± 0.023
[1], 10 µM	0.633 ± 0.059
[2], 0.00017 µM	0.976 ± 0.025
[2], 0.00051 µM	0.95 ± 0.034
[2], 0.00152 µM	0.904 ± 0.043
[2], 0.00457 µM	0.844 ± 0.052
[2], 0.01372 µM	0.609 ± 0.02
[2], 0.04115 µM	0.191 ± 0.013
[2], 0.1235 µM	0.0431 ± 0.0018
[2], 0.3704 µM	0.0199 ± 0.0028
[2], 1.111 µM	0.0127 ± 0.0016
[2], 3.333 µM	0.00913 ± 0.0015
[2], 10 µM	0.0143 ± 0.001
[3], 0.00017 µM	0.965 ± 0.016
[3], 0.00051 µM	1.01 ± 0.028
[3], 0.00152 µM	0.988 ± 0.037
[3], 0.00457 µM	1.05 ± 0.019
[3], 0.01372 µM	0.986 ± 0.022
[3], 0.04115 µM	0.969 ± 0.019
[3], 0.1235 µM	0.963 ± 0.025
[3], 0.3704 µM	0.932 ± 0.028
[3], 1.111 µM	0.893 ± 0.005
[3], 3.333 µM	0.875 ± 0.012
[3], 10 µM	0.865 ± 0.016
[4], 0.00017 µM	0.9825 ± 0.0067
[4], 0.00051 µM	1.01 ± 0.023
[4], 0.00152 µM	0.982 ± 0.019
[4], 0.00457 µM	0.969 ± 0.02
[4], 0.01372 µM	0.948 ± 0.021
[4], 0.04115 µM	0.921 ± 0.032
[4], 0.1235 µM	0.872 ± 0.061
[4], 0.3704 µM	0.824 ± 0.02
[4], 1.111 µM	0.677 ± 0.026
[4], 3.333 µM	0.524 ± 0.023
[4], 10 µM	0.457 ± 0.023
[5], 0.00017 µM	0.9664 ± 0.0027
[5], 0.00051 µM	0.987 ± 0.035
[5], 0.00152 µM	0.963 ± 0.04
[5], 0.00457 µM	0.932 ± 0.031
[5], 0.01372 µM	0.906 ± 0.013
[5], 0.04115 µM	0.846 ± 0.069
[5], 0.1235 µM	0.715 ± 0.017
[5], 0.3704 µM	0.674 ± 0.033
[5], 1.111 µM	0.576 ± 0.086
[5], 3.333 µM	0.519 ± 0.021
[5], 10 µM	0.399 ± 0.011
[6], 0.00017 µM	1.02 ± 0.028
[6], 0.00051 µM	1.04 ± 0.013
[6], 0.00152 µM	1.04 ± 0.023
[6], 0.00457 µM	1.01 ± 0.0088
[6], 0.01372 µM	0.99 ± 0.019
[6], 0.04115 µM	0.971 ± 0.04
[6], 0.1235 µM	0.905 ± 0.029
[6], 0.3704 µM	0.799 ± 0.018
[6], 1.111 µM	0.628 ± 0.0063
[6], 3.333 µM	0.441 ± 0.0074
[6], 10 µM	0.34 ± 0.0087
[7], 0.00017 µM	1.02 ± 0.061
[7], 0.00051 µM	1.04 ± 0.033
[7], 0.00152 µM	1.03 ± 0.038
[7], 0.00457 µM	1.04 ± 0.016
[7], 0.01372 µM	1.02 ± 0.029
[7], 0.04115 µM	1.01 ± 0.044
[7], 0.1235 µM	1 ± 0.029
[7], 0.3704 µM	0.968 ± 0.038
[7], 1.111 µM	0.837 ± 0.05
[7], 3.333 µM	0.675 ± 0.02
[7], 10 µM	0.607 ± 0.059
[8], 0.00017 µM	0.911 ± 0.025
[8], 0.00051 µM	0.906 ± 0.061
[8], 0.00152 µM	0.904 ± 0.053
[8], 0.00457 µM	0.862 ± 0.069
[8], 0.01372 µM	0.785 ± 0.035
[8], 0.04115 µM	0.729 ± 0.038
[8], 0.1235 µM	0.615 ± 0.051
[8], 0.3704 µM	0.602 ± 0.0075
[8], 1.111 µM	0.499 ± 0.073
[8], 3.333 µM	0.409 ± 0.021
[8], 10 µM	0.361 ± 0.026
[9], 0.00017 µM	0.95 ± 0.06
[9], 0.00051 µM	1.02 ± 0.033
[9], 0.00152 µM	0.935 ± 0.024
[9], 0.00457 µM	0.937 ± 0.023
[9], 0.01372 µM	0.881 ± 0.019
[9], 0.04115 µM	0.813 ± 0.041
[9], 0.1235 µM	0.764 ± 0.011
[9], 0.3704 µM	0.716 ± 0.019
[9], 1.111 µM	0.663 ± 0.026
[9], 3.333 µM	0.613 ± 0.023
[9], 10 µM	0.555 ± 0.0082
[10], 0.00017 µM	0.974 ± 0.037
[10], 0.00051 µM	0.961 ± 0.022
[10], 0.00152 µM	0.885 ± 0.071
[10], 0.00457 µM	0.743 ± 0.024
[10], 0.01372 µM	0.582 ± 0.019
[10], 0.04115 µM	0.466 ± 0.028
[10], 0.1235 µM	0.336 ± 0.03
[10], 0.3704 µM	0.193 ± 0.017
[10], 1.111 µM	0.081 ± 0.015
[10], 3.333 µM	0.0279 ± 0.0031
[10], 10 µM	0.0191 ± 0.0033
[11], 0.00017 µM	1.06 ± 0.055
[11], 0.00051 µM	1.05 ± 0.015
[11], 0.00152 µM	1.05 ± 0.048
[11], 0.00457 µM	1.037 ± 0.0054
[11], 0.01372 µM	1 ± 0.013
[11], 0.04115 µM	0.955 ± 0.012
[11], 0.1235 µM	0.8497 ± 0.0061
[11], 0.3704 µM	0.797 ± 0.026
[11], 1.111 µM	0.662 ± 0.022
[11], 3.333 µM	0.577 ± 0.032
[11], 10 µM	0.554 ± 0.023
[12], 0.00017 µM	0.961 ± 0.05
[12], 0.00051 µM	0.9 ± 0.02
[12], 0.00152 µM	0.825 ± 0.025
[12], 0.00457 µM	0.614 ± 0.021
[12], 0.01372 µM	0.33 ± 0.018
[12], 0.04115 µM	0.173 ± 0.0092
[12], 0.1235 µM	0.109 ± 0.0089
[12], 0.3704 µM	0.0754 ± 0.0047
[12], 1.111 µM	0.0494 ± 0.0078
[12], 3.333 µM	0.0309 ± 0.0019
[12], 10 µM	0.0277 ± 0.0025
